This note sets out measurements from ChEMBL document CHEMBL2146467, “Generation and exploration of new classes of antitubercular agents: The optimization of oxazolines, oxazoles, thiazolines, thiazoles to imidazo[1,2-a]pyridines and isomeric 5,6-fused scaffolds” (Bioorg Med Chem, 2012).

One may read the MIC90 as an inhibitory concentration at the 90% level, which refers to growth in some studies and to a panel of isolates in others. A higher MIC90 goes with weaker potency.

Format in all cases: functional
Common to all, as to conditions: 336 h

The test system of test [1] is Mycobacterium tuberculosis. Nature of the test: Antimycobacterial activity against isoniazid-,rifampin-,ethambutol-,streptomycin-,kanamycin-,ofloxacin-resistant Mycobacterium tuberculosis after 14 days.
The subject of test [2] is Mycobacterium tuberculosis. Briefly: Antimycobacterial activity against isoniazid-,rifampin-,ethambutol-,kanamycin-,ofloxacin-resistant Mycobacterium tuberculosis after 14 days.
For test [3], the system named is Mycobacterium tuberculosis. Nature of the test: Antimycobacterial activity against isoniazid-,rifampin-,ethambutol-,rifabutin-resistant Mycobacterium tuberculosis after 14 days.

Values after ≈ are worked out from the molar mass of the structure shown. Where only a bound is given, the exact number is not on record here.

For `O=C(OCc1ccccc1)c1coc(-c2ccccc2)n1`, the MIC90 in test [1] was 4.4 µM (≈ 1.23 µg/mL); in test [2] it was 8.9 µM (≈ 2.49 µg/mL).

`O=C(OCc1ccccc1)c1csc(-c2ccccc2)n1`: the MIC90 in test [3] came to 33.9 µM (≈ 10 µg/mL); in test [1], 16.9 µM (≈ 4.99 µg/mL); in test [2], 16.9 µM (≈ 4.99 µg/mL).

As to `Cc1ccn2c(C(=O)OCc3ccccc3)c(C)nc2c1`, the MIC90 in test [3] was 0.57 µM (≈ 0.16 µg/mL); in test [1], less than 0.04 µM; in test [2], less than 0.04 µM.

For `O=[N+]([O-])c1cn2c(n1)OC[C@@H](OCc1ccc(OC(F)(F)F)cc1)C2` [PRETOMANID], the values for the MIC90 in test [3], in test [1] and in test [2] were 0.45 µM (≈ 0.162 µg/mL), 0.86 µM (≈ 0.309 µg/mL) and 0.22 µM (≈ 0.079 µg/mL), respectively.
